From the supplement of paper PMC11208160

Experiment: recombinant UMI read abundance after kanamycin selection (control-corrected) (log10(CPM+1)); higher = more efficient recombination; extreme values may be limits of the assay; sequences stand for … in AGTGCAGAGAAAATCGGCCAGTTTTCTCTGCCTGCAGTCCGCATGCCGTGGGACCCCTTGGGTTCTAACCTGTTGCCTAGATTTATGCAGCGGACTGCCTTTCTCCCAAAGTGATAAACCGG…AGGTTGGTTTCACT; site = the 11-nt donor
How it was run: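 After plating on IPTG (0.07 mM) plus kanamycin, or unselected, in two replicates, recombinant UMIs were PCR-amplified across the donor–target junction and sequenced. The cells were Escherichia coli co-electroporated with a UMI-tagged donor and donor-binding-loop pair library and a target plasmid with a fixed target and T7-inducible IS621 bridge recombinase. Values are log10(CPM+1), with CPM averaged over replicates and scaled by control-derived factors.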
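Further: IS621 bridge recombinase in Escherichia coli cells against a fixed T5 target plasmid.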

| Sequence | recombinant UMI read abundance (log10) |
| --- | --- |
| CGTTTGGCATGGACCGGTTTTCCCGGTAATCCGTATTTGGT (site CGTTTGGCTAC) | 1.31 |
| CGTTTGGCATGGACCGGTTTTCCCGGTAATCCGTATTTGGT (site CGTTTGGCTAG) | 0.00668 |
| CGTTTGGCATGGACCGGTTTTCCCGGTAATCCGTATTTGGT (site CGTTTGGCTAT) | 0.959 |
| CGTTTGGCATGGACCGGTTTTCCCGGTAATCCGTATTTGTT (site CGTTTGGCTAA) | 0.693 |
| CGTTTGGCATGGACCGGTTTTCCCGGTAATCCGTATTTGTT (site CGTTTGGCTAC) | 0.0131 |
| CGTTTGGCATGGACCGGTTTTCCCGGTAATCCGTATTTGTT (site CGTTTGGCTAG) | 0.989 |
| CGTTTGGCATGGACCGGTTTTCCCGGTAATCCGTATTTGTT (site CGTTTGGCTAT) | 0.033 |
| CGTTTGTCATGGACCGGTTTTCCCGGTAATCCGTATTTGCT (site CGTTTGACTAG) | 0 |
| CGTTTGTCATGGACCGGTTTTCCCGGTAATCCGTATTTGCT (site CGTTTGCCTAG) | 0 |
| CGTTTGTCATGGACCGGTTTTCCCGGTAATCCGTATTTGCT (site CGTTTGGCTAG) | 0 |
| CGTTTGTCATGGACCGGTTTTCCCGGTAATCCGTATTTGCT (site CGTTTGTCTAG) | 1.92 |
| CGTTTTGCATGGACCGGTTTTCCCGGTAATCCGTATTTGCT (site CGTTTAGCTAG) | 0 |
| CGTTTTGCATGGACCGGTTTTCCCGGTAATCCGTATTTGCT (site CGTTTCGCTAG) | 0 |
| CGTTTTGCATGGACCGGTTTTCCCGGTAATCCGTATTTGCT (site CGTTTGGCTAG) | 0 |
| CGTTTTGCATGGACCGGTTTTCCCGGTAATCCGTATTTGCT (site CGTTTTGCTAG) | 0.543 |
| CTAAAAGCATGGACCGGTTTTCCCGGTAATCCGTATTTGGC (site CTAAAAGCTGC) | 0 |

| Sequence | recombinant UMI read abundance (log10) |
| --- | --- |
| CTAAAATCATGGACCGGTTTTCCCGGTAATCCGTATTTGAC (site CTAAAATCTGT) | 2.03 |
| CTAAAATCATGGACCGGTTTTCCCGGTAATCCGTATTTGAC (site CTAGTATCTGT) | 0.0803 |
| CTAAGAACATGGACCGGTTTTCCCGGTAATCCGTATTTGAA (site CTAAGAACTTT) | 2.44 |
| CTAAGGCCATGGACCGGTTTTCCCGGTAATCCGTATTTGAC (site ATAAGGCCTGT) | 0 |
| CTAAGGCCATGGACCGGTTTTCCCGGTAATCCGTATTTGAC (site CTAAGGCCTGT) | 0.577 |
| CTAAGGCCATGGACCGGTTTTCCCGGTAATCCGTATTTGAC (site GTAAGGCCTGT) | 0 |
| CTAAGGCCATGGACCGGTTTTCCCGGTAATCCGTATTTGAC (site TTAAGGCCTGT) | 0 |
| CTAATAACATGGACCGGTTTTCCCGGTAATCCGTATTTGGA (site CTAATAACTTC) | 2.05 |
| CTAATAACATGGACCGGTTTTCCCGGTAATCCGTATTTGGA (site CTACTAACTTC) | 0.337 |
| CTAATAACATGGACCGGTTTTCCCGGTAATCCGTATTTGGA (site CTAGTAACTTC) | 0.0598 |
| CTAATAACATGGACCGGTTTTCCCGGTAATCCGTATTTGGA (site CTATTAACTTC) | 1.14 |
| CTAATTACATGGACCGGTTTTCCCGGTAATCCGTATTTGTG (site CTAATTACTCA) | 0.859 |
| CTACCGTCATGGACCGGTTTTCCCGGTAATCCGTATTTGGG (site CTACCGTCTCC) | 0.901 |
| CTACCTACATGGACCGGTTTTCCCGGTAATCCGTATTTGAG (site CTACCTACTCT) | 1.04 |
| CTACCTACATGGACCGGTTTTCCCGGTAATCCGTATTTGAG (site CTCCCTACTCT) | 0.0123 |
| CTACCTACATGGACCGGTTTTCCCGGTAATCCGTATTTGAG (site CTGCCTACTCT) | 0.00249 |
